Reference: the NIST ThermoML archive (doi:10.1016/j.jct.2018.10.006)

Assay: molar heat capacity at constant pressure
Details: 101.33 kPa, Crystal 2, Small (less than 1 g) adiabatic calorimetry

O=P([O-])([O-])[O-].[Cs+].[Ni+2] [cesium nickel monophosphate]
Details	molar heat capacity at constant pressure [J/K/mol]
5 K	0.898
6 K	1.272
6.21 K	1.255
6.51 K	1.413
6.82 K	1.605
7 K	1.721
7.13 K	1.788
7.51 K	1.987
7.97 K	2.195
8 K	2.203
8.43 K	2.444
8.87 K	2.627
9 K	2.719
9.32 K	2.902
9.77 K	3.176
10 K	3.351
10.24 K	3.492
10.72 K	3.908
11.23 K	4.299
11.76 K	4.756
12.55 K	5.496
13.09 K	6.119
13.82 K	6.826
14.55 K	7.566
15 K	8.032
15.28 K	8.431
16.02 K	9.146
16.77 K	9.844
17.78 K	10.73
18.33 K	11.31
19.12 K	12.07
19.94 K	13.03
20 K	13.06
21.96 K	15.22
24.23 K	17.56
25 K	18.54
26.66 K	20.67
29.06 K	23.5
30 K	24.62
31.53 K	26.28
34.01 K	28.63
35 K	29.56
36.46 K	30.81
38.9 K	33.32
40 K	34.26
41.34 K	35.6
43.79 K	38.06
45 K	39.07
46.25 K	40.1
48.71 K	42.56
50 K	43.9
51.87 K	45.56
53.99 K	47.57
56.52 K	50.12
58.51 K	51.87
60 K	52.93
61.71 K	54.33
63.47 K	55.42
67.49 K	58.66
68.37 K	59.49
70 K	60.41
70.84 K	61.18
73.34 K	62.62
75.82 K	64.02
78.29 K	65.34
80 K	66.38
80.75 K	66.68
81.73 K	67.23
83.21 K	67.91
85.55 K	69.26
85.67 K	69.26
88.13 K	70.96
88.91 K	71.04
90 K	71.65
92.27 K	73.08
95.63 K	74.82
98.99 K	76.75
100 K	77.58
102.34 K	78.95
105.7 K	80.67
109.06 K	82.69
110 K	82.93
112.41 K	84.06
115.76 K	85.56
119.1 K	86.8
120 K	87.3
122.44 K	88.22
125.78 K	89.96
129.12 K	91.04
130 K	91.38
132.46 K	92.37
135.8 K	93.29
139.13 K	94.95
140 K	95.37
142.46 K	96.61
145.78 K	97.86
149.1 K	99.03
150 K	99.52
152.42 K	100.44
155.74 K	101.69
159.04 K	103.27
